# From US8987449B2, “Medicine for treating ischemic brain injury and its sequelae, and preparation method thereof” (Haimin Lei, priority 2011, dated 2015)
# Experiments:
# [1] = system: chicken chorioallantoic membrane (CAM); assay: Effect of LQC-T on CAM angiogenesis (CAM method, vessel count); assay type: in vivo; settings: 20 μg/chicken embryo
# Method: Embryonated chicken eggs of Lohmann of German, egg weight 50-60 g (embryo experiment center of Chinese Agriculture University)
# LQC-T (1-6) (prepared by the methods of examples 2-7), wherein the purity was ≧98%, determined by high performance liquid chromatography (HPLC), meeting the requirements of the experiment. The powder was carefully sealed and preserved at 4° C.
# Aseptic gelatin sponge, which was made into a wafer having a diameter of 5 mm by a hole-puncher in advance, was used as sample carrier. The prepared LQC-T series compounds were added according to 20 μg/chicken embryo in an aseptic environment. The 0.9% physiological saline was used in a blank group. The samples were air-dried in an aseptic environment.
# A hatching egg after disinfection was put into a 37° C. incubation box with air sac upward until the seventh day of incubation. The egg embryo was disinfected using alcohol at a super clean bench, and then a small hole was drilled at the top of the egg embryo using a dental drill, and the nearby egg shell and shell membrane were removed carefully to form the opening with the size of about 1.2 cm×1.2 cm. After spotting the location for applying the sample, the air sac was broken with injection needle at the interface between air sac and the yolk and then 1-2 drops of aseptic physiological saline was injected so that the air sac membrane was separated from CAM membrane. Then the upper air sac membrane was slightly removed with a nipper to expose the lower CAM membrane.
# The medicine-containing carrier was softly put by a nipper at the locations of CAM and yolk cyst membrane with fewer vessels, the opening was then sealed with aseptic transparent tape and incubation was continued for another 72 h.
# After the incubation, the transparent tape blocking the chicken embryo air sac was removed with a nipper. The liquid of equal-volumetrically mixed methanol/acetone 1-2 ml was added and fixed at room temperature for 10 min. The CAM membrane was carefully removed and put it onto a slide. Then it was observed and a photograph was taken. The effect of the compounds on angiogenesis was evaluated by the count analytic method using the numbers of great vessels, medium vessels and small vessels arranged radially around by the carrier.
# All the data were statistically analyzed using SPSS11.0 software pack. The difference between the administration group and the blank group was given through one-way variance analysis. P<0.05 had statistical significance.
# ICR white mice = assay: Acute toxic experiment of mice by oral administration; assay type: in vivo, mouse; set-up: key to Animal reaction in 14 days after the administration: appearance / Animal reaction in 14 days after the administration: behavior / Animal reaction in 14 days after the administration: hair / Animal reaction in 14 days after the administration: respiration / Animal reaction in 14 days after the administration: posture / Animal reaction in 14 days after the administration: reaction: ✓ means normal; settings: for Animal reaction in 14 days after the administration: death: 10 animals; for Animal reaction in 14 days after the administration: death / Animal reaction in 14 days after the administration: appearance / Animal reaction in 14 days after the administration: behavior / Animal reaction in 14 days after the administration: hair / Animal reaction in 14 days after the administration: posture / Animal reaction in 14 days after the administration: reaction / Animal reaction in 14 days after the administration: respiration: oral 3 x 1800 mg/kg (5400 mg/kg) in one day
# Method: ICR white mice (half female and half male, 18-22 g, experiment animal certificate No.: SCXK (Jing) 2006-0009);
# LQC-T4 (white powder (self made); and LQC-T4 4500 mg was dissolved into 0.5% sodium carboxymethyl cellulose 100 ml and then suspended by supersonic wave. The suspension was used in situ).
# The qualified animals were quarantined and weighed before the administration. The animals were divided into groups randomly by weight. The intragastric administration tool was used for mice to carry out the intragastric administration. The mice were fasted but not water-deprived (continuously for 14 h) overnight before being administrated. The mice were administrated at 9:00 AM for the first time (1800 mg/kg) on the present administration day and observed continuously for 1 h. The mice were administrated for the second time (1800 mg/kg) at an interval of 6 h since the first administration and observed continuously for 1 h. The mice were administrated for the third time (1800 mg/kg) at an interval of 6 h since the second administration, observed continuously for 1 h and then the mice were fed.
smiles,measurement,setting,value
"COc1cc(C(=O)OCc2nc(C)c(C)nc2C)ccc1OCc1nc(C)c(C)nc1C [LQC-T4, (3,5,6-trimethylpyrazine-2-yl)methyl 3-methoxy-4-((3,5,6-trimethylpyrazine-2-yl)methoxy) benzoate]","small vessel angiogenesis of CAM model, Medicine group (X ± S)","[1]; 72 h incubation, number of small vessels, blank group 8.67 ± 1.03",14.4 ± 2.16
same,effect on growth of new (small) vessels compared with the blank group,[1]; result in words,significant promoting effect
same,Animal reaction in 14 days after the administration: death,ICR white mice; mice ♀,0
same,Animal reaction in 14 days after the administration: appearance,ICR white mice; mice ♀,✓
same,Animal reaction in 14 days after the administration: behavior,ICR white mice; mice ♀,✓
same,Animal reaction in 14 days after the administration: hair,ICR white mice; mice ♀,✓
same,Animal reaction in 14 days after the administration: posture,ICR white mice; mice ♀,✓
same,Animal reaction in 14 days after the administration: reaction,ICR white mice; mice ♀,✓
same,Animal reaction in 14 days after the administration: respiration,ICR white mice; mice ♀,✓
same,Animal reaction in 14 days after the administration: death,ICR white mice; mice ♂,0
same,Animal reaction in 14 days after the administration: appearance,ICR white mice; mice ♂,✓
same,Animal reaction in 14 days after the administration: behavior,ICR white mice; mice ♂,✓
same,Animal reaction in 14 days after the administration: hair,ICR white mice; mice ♂,✓
same,Animal reaction in 14 days after the administration: posture,ICR white mice; mice ♂,✓
same,Animal reaction in 14 days after the administration: reaction,ICR white mice; mice ♂,✓
same,Animal reaction in 14 days after the administration: respiration,ICR white mice; mice ♂,✓
same,death in 12 h after the administration,"ICR white mice; mice, oral 3 x 1800 mg/kg",No death was observed
same,toxic reaction at the maximum dosage,"ICR white mice; mice, oral, maximum dosage of 5400 mg/kg, observed continuously for 14 days",No toxic reaction was observed
